# System: bradykinin-induced plasma leakage in rat urinary bladder
# Experiment: bradykinin-induced plasma leakage test in rat urinary bladder
# Assay type: in vivo
# Conditions: test compound at a concentration of 1.5 μM, i.v. 3 ml/kg, bradykinin 10 nmol/kg i.v.
# Protocol: The bradykinin antagonist activity of the dihydropyridine compounds in vivo is evaluated by a plasma leakage test. This test essentially involve determining the concentration of the individual compound required to reduce by 50% the amount of bradykinin-induced plasma leakage in rat urinary bladder, thereby affording characteristic ED50 values for each compounds tested.
# More specifically, the assay is carried out as follows. 3.5-week old male Sprague-Dawlew rats are purchased from Charles River Japan Inc. The rats are fed on stock diet (CRF from Charles River Japan, Inc.) and maintained under the standard conditions (temperature, 23±1° C. and humidity 55±5%) for at least 3 days. The rats are fasted overnight prior to the experiments. Each test group consists of 5 rats. […]
# Captopril (5 mg/kg of body weight) is intraperitoneally (i.p.) injected to the rats, and 20 min later the rats are anesthetized by an administration of Nembutal (Abbott) ([…] of body weight). […] The absorbance of the extract is measured spectrophotometrically at 605 nm to determined the dye concentration. The effect of the individual test compound is calculated as a percentage of the amount of Evans blue leaked into the urinary bladder as compared to the control (saline for the test compounds).
smiles,measurement,value
"COC(=O)C1=C(CCc2ccccc2OC)NC(CC(=O)N2CCN(C3CC4CCC(C3)N4C)CC2)=C(C(=O)OC)C1c1c(Cl)cccc1Cl (stereo not shown) [dimethyl 4-(2,6-dichlorophenyl)-6-[2-(2-methoxyphenyl)ethyl]-2-[4-(8-methyl-8-azabicyclo[3.2.1]oct-3-yl)-1-piperazinyl]carbonylmethyl-1,4-dihydropyridine-3,5-dicarboxylate]",inhibition of urinary bladder leakage (Evans blue),did not show significant in vivo activity

# — patent US6131226A, “1,4-dihydropyridine compounds as bradykinin antagonists” (Pfizer Inc., priority 1996, dated 2000)
